Source: patent US20250082760A1 (priority 2020, published 2025)
In brackets after ≈: the same amount, converted by molar mass. Like-named read-outs stand apart in the source and are kept apart here.

Tests used:
[1] = water solubility experiments; format: physicochemical
[2] = system: hot plate pain threshold in ICR mice; assay: hot plate method, compound 2, intravenous administration; format: in vivo; details: for Pain threshold before administration: baseline; for Pain threshold before administration / Pain threshold after administration: X ± SD
Description: (§1) 20 ICR mice, 18-22 g, half male and half male, were purchased from the animal room of Xi′an Jiaotong University School of Medicine; rearing conditions: room temperature 18-20° C., same-sex cages, 12-hour light, regular ventilation, conventional full-price solid feed feeding, and the bedding was changed every two days; 20 mice were randomly divided into 2 groups (low-dose test drug group, test drug high-dose group), 10 mice in each group (5 ♀95).
An appropriate amount of compound 2 was accurately weighed and dissolved in 5% glucose water to prepare a concentration of 2 mg/ml (dissolved state is good, basically transparent), which was utilized as a mother solution. During the test, according to the test requirements, it was diluted with 5% glucose aqueous solution to an appropriate concentration.
The first group was the high-dose test drug group, and the test drug was given 10 mg/kg by tail vein injection; the second group was the low-dose test drug group, and the test drug was given 3 mg/kg by tail vein injection.
(§2) The mice were placed in a hot plate apparatus at a temperature of 55±0.5° C., and the pain thresholds of the mice were measured and recorded before administration, 30 minutes after administration, 60 minutes after administration, and 120 minutes after administration.

[3] = system: hot plate pain threshold in mice; assay: hot plate method, compound 1, intragastric administration; format: in vivo; details: for Pain response time Before administration: baseline, n 10; for Pain response time Before administration / Pain response time After administration: X ± SD; for Pain response time After administration / Pain response time extension rate: 60 min after administration; for Pain response time extension rate: blank group 3.9 ± 6.6
Description: All the mice participating in the experiment were subjected to hot plate pain threshold detection before the experiment, and qualified mice with pain threshold of 10-40 s were screened.
Accurately weigh an appropriate amount of compound 1, dissolve it in distilled water and prepare a mother liquor of 100 mg/ml, then dilute to 1.25 mg/ml (25 mg/kg), 2.5 mg/ml (50 mg/kg) with double distilled water respectively; accurately weigh an appropriate amount of the positive control drug gabapentin, dissolve in distilled water and prepare a 100 mg/ml mother solution, and then dilute to 10 mg/ml (200 mg/kg) with double distilled water. All medicines are prepared and utilized as needed.
40 only qualified mice were divided into 4 groups, half male and half female in each group. The first group is the blank group, no administration; the second group is the positive control (gabapentin) 25 mg/kg group; the third group is the test drug 25 mg/kg group; the fourth group is the test drug 50 mg/kg group 4. All were administered by gavage.
The mice were placed in a hot plate apparatus at a temperature of 55±0.5° C., and the pain thresholds of the mice were measured and recorded before administration and 60 min after administration.

[4] = system: hot plate pain threshold in ICR mice; assay: hot plate method, compound 1, intravenous administration; format: in vivo; details: for Pain threshold before administration: baseline; for Pain threshold before administration / Pain threshold after administration: X ± SD
Description: as §1, with “same sex rearing in separate” for “same-sex”, “feeding,” for “feeding, and the”, “bedding” for “bedding was”, “group) with” for “group),”, “♀5).” for “♀95).”
An appropriate amount of compound 1 was accurately weighed and dissolved in 0.9% physiological saline to prepare a concentration of 5 mg/ml (dissolved state is good, basically transparent), which was used as a mother solution. During the test, according to the test requirements, diluted with normal saline to an appropriate concentration.
The first group was the low-dose test drug group, and the test drug was given 10 mg/kg by tail vein injection; the second group was the test drug high-dose group, and the test drug was given 15 mg/kg by tail vein injection.
as §2

[5] = system: convulsions in mice induced by electrical stimulation; assay: anticonvulsant effect on mice induced by electrical stimulation; format: in vivo
Description: (1) Divide 40 mice (20♀20) into 5 groups at random, with 8 mice (4♀4) in each group, and label No. 1 to No. 8 with picric acid respectively; (2) All mice were tested according to the order of groups and labels electrical stimulation, the initial voltage was 40V, the voltage was increased by 2.5V each time, the time interval between two electrical stimulations for the same mouse was 20 min, the threshold voltage value of convulsion and the time from convulsion to complete recovery were recorded, and the dead mice were discarded, qualified mice were screened; (3) After screening, 7 mice (2♀5) in the 40 mice could not recover after convulsions and died, and the remaining 33 qualified mice […]; (4) From standby 7 mice were screened out as a supplement, and the number of the dead mice in step (2) was marked with picric acid and added to the corresponding groups, so that a total of 40 (20♀20) qualified mice in 5 groups were finally obtained., all mice were weighed and recorded.
Positive drug: sodium valproate (specification 0.2 g), take 1 tablet in a mortar, add 20 ml of 0.5% CMC-Na solution while grinding, to a suspended state, set EP tube for use; test drug (compound 5): Dissolve in distilled water to 5, 10, and 20 mg/ml solutions, respectively, and set EP tubes for later use.
Electrical stimulation was performed 1.5 hours after the last administration, and each mouse was given the threshold voltage measured before to observe the experimental phenomenon and record whether there was convulsions and death occurred.
The first group was the blank control group, which was given 0.4 ml/20 g of 0.5% CMC-Na by gavage; the second group was the positive drug control group, which was given sodium valproate 200 mg/kg by gavage; the third group was the test drug the low-dose group, which was given 100 mg/kg of compound 5 by gavage; the fourth group was the test drug medium-dose group, which was given 200 mg/kg of compound 5 by gavage; the fifth group was the test drug high-dose group, which was given 400 mg/kg of compound 5 by gavage.
1.5 h after the last administration, electrical stimulation was performed according to the threshold voltage measured before each mouse, the experimental phenomenon was observed, and the occurrence of convulsions and death were recorded. If convulsion occurs, record the time of complete recovery; if no convulsion occurs, continue to increase the voltage with a gradient of 2.5V to measure the current threshold voltage value and recovery time.
Strictly follow the 5 periods of convulsion in mice, namely, latency period, rigid flexion period, hindlimb extension period, clonic period and recovery period to judge whether the mice have convulsions after electrical stimulation, and the phenomenon of death can not be recovered after convulsions.

[6] = 10 mg/kg tail vein group, hot plate 55±0.5° C.

SMILES: CC(C)c1cc(I)cc(C(C)C)c1OC(=O)CC1(CN)CCCCC1.Cl [Compound 2, 4-iodo-2,6-diisopropylphenyl 2-(1-(aminomethyl)cyclohexyl)acetate hydrochloride]
- logP (physchem): 1.66
- solubility [1]: 13000 µg/mL
- Pain threshold before administration ([2]; 3 mg/kg tail vein group): 11.33 ± 4.08 s
- Pain threshold after administration ([2]; 3 mg/kg tail vein, 30 min): 12.41 ± 3.67 s
- Pain threshold after administration ([2]; 3 mg/kg tail vein, 60 min): 10.16 ± 3.38 s
- Pain threshold after administration ([2]; 3 mg/kg tail vein, 120 min): 6.47 ± 5.40 s
- Pain threshold before administration [2, 6]: 13.18 ± 3.33 s
- Pain threshold after administration ([2]; 10 mg/kg tail vein, 30 min): 18.10 ± 5.96 s
- Pain threshold after administration ([2]; 10 mg/kg tail vein, 60 min): 13.98 ± 6.78 s
- Pain threshold after administration ([2]; 10 mg/kg tail vein, 120 min): 14.18 ± 6.90 s
- analgesic effect in the hot plate test ([2]; intravenous, at 10 mg/kg performed well 30 minutes after injection): good analgesic effect

SMILES: CC(C)c1cccc(C(C)C)c1OC(=O)CC1(CN)CCCCC1.Cl [Compound 1, 2,6-diisopropylphenyl 2-(1-(aminomethyl)cyclohexyl)acetate hydrochloride]
- logP (physchem): 1.1
- solubility [1]: 18000 µg/mL
- Pain response time Before administration ([3]; 25 mg/kg gavage group): 22.0 ± 10.2 s
- Pain response time After administration ([3]; 25 mg/kg gavage): 32.1 ± 14.5 s
- Pain response time extension rate ([3]; 25 mg/kg gavage): 59.3 ± 66.7 %
- Pain response time Before administration ([3]; 50 mg/kg gavage group): 20.0 ± 5.9 s
- Pain response time After administration ([3]; 50 mg/kg gavage): 40.2 ± 17.9 s
- Pain response time extension rate ([3]; 50 mg/kg gavage): 100.0 ± 91.1 %
- analgesic effect, hot plate, gavage ([3]; 25 and 50 mg/kg gavage, comparable to gabapentin): can prolong the reaction time of hot plate pain
- Pain threshold before administration [4, 6]: 8.92 ± 3.05 s
- Pain threshold after administration ([4]; 10 mg/kg tail vein, 30 min): 17.09 ± 6.05 s
- Pain threshold after administration ([4]; 10 mg/kg tail vein, 60 min): 16.96 ± 6.13 s
- Pain threshold after administration ([4]; 10 mg/kg tail vein, 120 min): 12.36 ± 5.75 s
- Pain threshold before administration ([4]; 15 mg/kg tail vein group): 10.90 ± 3.72 s
- Pain threshold after administration ([4]; 15 mg/kg tail vein, 30 min): 18.88 ± 6.06 s
- Pain threshold after administration ([4]; 15 mg/kg tail vein, 60 min): 13.49 ± 6.53 s
- Pain threshold after administration ([4]; 15 mg/kg tail vein, 120 min): 6.47 ± 5.40 s
- analgesic effect in the hot plate test ([4]; intravenous 10 and 15 mg/kg, 10 mg/kg best, good within 30-60 minutes after injection): good analgesic effect

SMILES: CCCC(CCC)C(=O)[O-].[Na+] [sodium valproate, reference compound]
- anti-electrical convulsion ability (threshold voltage increase) ([5]; compared with blank group, sodium valproate 200 mg/kg gavage, 1.5 h after last administration, p<0.05): significantly improve
- weight gain of mice ([5]; mouse, in vivo): no difference

SMILES: CC(C)c1cc(I)cc(C(C)C)c1OC(=O)NCC1(CC(=O)O)CCCCC1 [Compound 4]
- logP (physchem): 3.52
- solubility [1]: 40 µg/mL (≈ 79.8 µM)

SMILES: CC(C)c1cccc(C(C)C)c1OC(=O)NCC1(CC(=O)O)CCCCC1 [Compound 3]
- logP (physchem): 2.38
- solubility [1]: 80 µg/mL (≈ 213 µM)

SMILES: CC(C)c1cccc(C(C)C)c1OC(=O)CC1(C[N+](C)(C)C)CCCCC1 [Compound 6, (1-(2-(2,6-diisopropylphenoxy)-2-oxoethyl)cyclohexyl)-N,N,N-tri-methylmethanaminium iodide]
- logP (physchem; fat/water partition (phases not further specified)): 1.54
- solubility [1]: 900 µg/mL
